{"source": "patent US20260130395A1", "about": "“Water Dispersible Botanical Compositions” (Aquila Black Limited, priority 2021, published 2026)", "test": "Stability of cannabinoid compounds and Vitamin E components in Beverage 1 (AB White) by LCMSMS", "assay_type": "physicochemical", "data": [{"smiles": "Cc1c(C)c2c(c(C)c1O)CC[C@@](C)(CCC[C@H](C)CCC[C@H](C)CCCC(C)C)O2", "note": "[α-Tocopherol]", "values": [{"measurement": "Stability of Vitamin Es in AB White", "setting": "stored at 8° C., 0 days", "value": 26.1, "unit": "µg/mL"}, {"measurement": "Stability of Vitamin Es in AB White", "setting": "stored at 8° C., 1 days", "value": 24.90, "unit": "µg/mL"}, {"measurement": "Stability of Vitamin Es in AB White", "setting": "stored at 8° C., 2 days", "value": 23.46, "unit": "µg/mL"}, {"measurement": "Stability of Vitamin Es in AB White", "setting": "stored at 8° C., 3 days", "value": 23.21, "unit": "µg/mL"}, {"measurement": "Stability of Vitamin Es in AB White", "setting": "stored at 8° C., 5 days", "value": 23.39, "unit": "µg/mL"}, {"measurement": "Stability of Vitamin Es in AB White", "setting": "stored at 8° C., 8 days", "value": 24.65, "unit": "µg/mL"}, {"measurement": "Stability of Vitamin Es in AB White", "setting": "stored at 8° C., 9 days", "value": 24.42, "unit": "µg/mL"}, {"measurement": "Stability of Vitamin Es in AB White", "setting": "stored at 8° C., 10 days", "value": 24.57, "unit": "µg/mL"}, {"measurement": "Stability of Vitamin Es in AB White", "setting": "stored at 8° C., 11 days", "value": 25.45, "unit": "µg/mL"}, {"measurement": "Stability of Vitamin Es in AB White", "setting": "stored at 8° C., 12 days", "value": 23.97, "unit": "µg/mL"}, {"measurement": "Stability of Vitamin Es in AB White", "setting": "stored at 8° C., 15 days", "value": 25.48, "unit": "µg/mL"}, {"measurement": "Stability of Vitamin Es in AB White", "setting": "stored at 8° C., 16 days", "value": 25.02, "unit": "µg/mL"}, {"measurement": "Stability of Vitamin Es in AB White", "setting": "stored at 8° C., 17 days", "value": 24.17, "unit": "µg/mL"}, {"measurement": "Stability of Vitamin Es in AB White", "setting": "stored at 8° C., 18 days", "value": 23.28, "unit": "µg/mL"}, {"measurement": "Stability of Vitamin Es in AB White", "setting": "stored at 8° C., 19 days", "value": 24.12, "unit": "µg/mL"}, {"measurement": "Stability of Vitamin Es in AB White", "setting": "stored at 8° C., 22 days", "value": 23.51, "unit": "µg/mL"}, {"measurement": "Stability of Vitamin Es in AB White", "setting": "stored at 8° C., 23 days", "value": 24.27, "unit": "µg/mL"}, {"measurement": "Stability of Vitamin Es in AB White", "setting": "stored at 8° C., 24 days", "value": 24.72, "unit": "µg/mL"}, {"measurement": "Stability of Vitamin Es in AB White", "setting": "stored at 8° C., 25 days", "value": 25.28, "unit": "µg/mL"}, {"measurement": "Stability of Vitamin Es in AB White", "setting": "stored at 8° C., 26 days", "value": 25.25, "unit": "µg/mL"}, {"measurement": "Stability of Vitamin Es in AB White", "setting": "stored at 8° C., 29 days", "value": 24.87, "unit": "µg/mL"}, {"measurement": "Stability of Vitamin Es in AB White", "setting": "stored at 8° C., 30 days", "value": 23.64, "unit": "µg/mL"}, {"measurement": "Stability of Vitamin Es in AB White", "setting": "stored at 8° C., 60 days", "value": 22.96, "unit": "µg/mL"}, {"measurement": "Stability of Vitamin Es in AB White", "setting": "stored at 8° C., 90 days", "value": 24.27, "unit": "µg/mL"}, {"measurement": "Stability of Vitamin Es in AB White", "setting": "stored at 8° C., 120 days", "value": 23.01, "unit": "µg/mL"}, {"measurement": "Stability of Vitamin Es in AB White", "setting": "stored at 8° C., 150 days", "value": 24.32, "unit": "µg/mL"}, {"measurement": "Stability of Vitamin Es in AB White", "setting": "stored at 8° C., 180 days", "value": 24.54, "unit": "µg/mL"}, {"measurement": "Stability of Vitamin Es in AB White", "setting": "stored at 8° C., 210 days", "value": 23.71, "unit": "µg/mL"}, {"measurement": "Stability of Vitamin Es in AB White", "setting": "stored at 8° C., 240 days", "value": 22.68, "unit": "µg/mL"}, {"measurement": "Stability of Vitamin Es in AB White", "setting": "stored at 8° C., 270 days", "value": 22.68, "unit": "µg/mL"}, {"measurement": "Stability of Vitamin Es in AB White", "setting": "stored at 8° C., 300 days", "value": 22.76, "unit": "µg/mL"}, {"measurement": "Stability of Vitamin Es in AB White", "setting": "stored at 8° C., 330 days", "value": 23.21, "unit": "µg/mL"}, {"measurement": "Stability of Vitamin Es in AB White", "setting": "stored at 8° C., 360 days", "value": 22.25, "unit": "µg/mL"}, {"measurement": "Stability of Vitamin Es in AB White", "setting": "stored at 8° C., 390 days", "value": 22.45, "unit": "µg/mL"}, {"measurement": "Stability of Vitamin Es in AB White", "setting": "stored at 8° C., 420 days", "value": 22.35, "unit": "µg/mL"}, {"measurement": "Stability of Vitamin Es in AB White", "setting": "stored at 8° C., 450 days", "value": 22.88, "unit": "µg/mL"}, {"measurement": "Stability of Vitamin Es in AB White", "setting": "stored at 8° C., 480 days", "value": 22.05, "unit": "µg/mL"}, {"measurement": "Stability of Vitamin Es in AB White", "setting": "stored at 8° C., 510 days", "value": 21.32, "unit": "µg/mL"}, {"measurement": "Stability of Vitamin Es in AB White", "setting": "stored at 8° C., 540 days", "value": 21.72, "unit": "µg/mL"}, {"measurement": "Stability of Vitamin Es in AB White", "setting": "stored at 8° C., 570 days", "value": 22.00, "unit": "µg/mL"}, {"measurement": "Stability of Vitamin Es in AB White", "setting": "stored at 21-25° C., 0 days", "value": 26.1, "unit": "µg/mL"}, {"measurement": "Stability of Vitamin Es in AB White", "setting": "stored at 21-25° C., 1 days", "value": 25.1, "unit": "µg/mL"}, {"measurement": "Stability of Vitamin Es in AB White", "setting": "stored at 21-25° C., 2 days", "value": 25.5, "unit": "µg/mL"}, {"measurement": "Stability of Vitamin Es in AB White", "setting": "stored at 21-25° C., 3 days", "value": 25.8, "unit": "µg/mL"}, {"measurement": "Stability of Vitamin Es in AB White", "setting": "stored at 21-25° C., 5 days", "value": 25.4, "unit": "µg/mL"}, {"measurement": "Stability of Vitamin Es in AB White", "setting": "stored at 21-25° C., 8 days", "value": 23.9, "unit": "µg/mL"}, {"measurement": "Stability of Vitamin Es in AB White", "setting": "stored at 21-25° C., 9 days", "value": 25.3, "unit": "µg/mL"}, {"measurement": "Stability of Vitamin Es in AB White", "setting": "stored at 21-25° C., 10 days", "value": 26.3, "unit": "µg/mL"}, {"measurement": "Stability of Vitamin Es in AB White", "setting": "stored at 21-25° C., 11 days", "value": 26.0, "unit": "µg/mL"}, {"measurement": "Stability of Vitamin Es in AB White", "setting": "stored at 21-25° C., 12 days", "value": 24.6, "unit": "µg/mL"}, {"measurement": "Stability of Vitamin Es in AB White", "setting": "stored at 21-25° C., 15 days", "value": 23.9, "unit": "µg/mL"}, {"measurement": "Stability of Vitamin Es in AB White", "setting": "stored at 21-25° C., 16 days", "value": 24.2, "unit": "µg/mL"}, {"measurement": "Stability of Vitamin Es in AB White", "setting": "stored at 21-25° C., 17 days", "value": 26.2, "unit": "µg/mL"}, {"measurement": "Stability of Vitamin Es in AB White", "setting": "stored at 21-25° C., 18 days", "value": 25.3, "unit": "µg/mL"}, {"measurement": "Stability of Vitamin Es in AB White", "setting": "stored at 21-25° C., 19 days", "value": 23.8, "unit": "µg/mL"}, {"measurement": "Stability of Vitamin Es in AB White", "setting": "stored at 21-25° C., 22 days", "value": 25.7, "unit": "µg/mL"}, {"measurement": "Stability of Vitamin Es in AB White", "setting": "stored at 21-25° C., 23 days", "value": 23.8, "unit": "µg/mL"}, {"measurement": "Stability of Vitamin Es in AB White", "setting": "stored at 21-25° C., 24 days", "value": 25.8, "unit": "µg/mL"}, {"measurement": "Stability of Vitamin Es in AB White", "setting": "stored at 21-25° C., 25 days", "value": 25.0, "unit": "µg/mL"}, {"measurement": "Stability of Vitamin Es in AB White", "setting": "stored at 21-25° C., 26 days", "value": 24.8, "unit": "µg/mL"}, {"measurement": "Stability of Vitamin Es in AB White", "setting": "stored at 21-25° C., 29 days", "value": 26.1, "unit": "µg/mL"}, {"measurement": "Stability of Vitamin Es in AB White", "setting": "stored at 21-25° C., 30 days", "value": 23.9, "unit": "µg/mL"}, {"measurement": "Stability of Vitamin Es in AB White", "setting": "stored at 21-25° C., 60 days", "value": 25.0, "unit": "µg/mL"}, {"measurement": "Stability of Vitamin Es in AB White", "setting": "stored at 21-25° C., 90 days", "value": 23.7, "unit": "µg/mL"}, {"measurement": "Stability of Vitamin Es in AB White", "setting": "stored at 21-25° C., 120 days", "value": 24.7, "unit": "µg/mL"}, {"measurement": "Stability of Vitamin Es in AB White", "setting": "stored at 21-25° C., 150 days", "value": 24.4, "unit": "µg/mL"}, {"measurement": "Stability of Vitamin Es in AB White", "setting": "stored at 21-25° C., 180 days", "value": 23.6, "unit": "µg/mL"}, {"measurement": "Stability of Vitamin Es in AB White", "setting": "stored at 21-25° C., 210 days", "value": 23.1, "unit": "µg/mL"}, {"measurement": "Stability of Vitamin Es in AB White", "setting": "stored at 21-25° C., 240 days", "value": 24.2, "unit": "µg/mL"}, {"measurement": "Stability of Vitamin Es in AB White", "setting": "stored at 21-25° C., 270 days", "value": 23.1, "unit": "µg/mL"}, {"measurement": "Stability of Vitamin Es in AB White", "setting": "stored at 21-25° C., 300 days", "value": 24.2, "unit": "µg/mL"}, {"measurement": "Stability of Vitamin Es in AB White", "setting": "stored at 21-25° C., 330 days", "value": 24.4, "unit": "µg/mL"}, {"measurement": "Stability of Vitamin Es in AB White", "setting": "stored at 21-25° C., 360 days", "value": 23.6, "unit": "µg/mL"}, {"measurement": "Stability of Vitamin Es in AB White", "setting": "stored at 21-25° C., 390 days", "value": 23.1, "unit": "µg/mL"}, {"measurement": "Stability of Vitamin Es in AB White", "setting": "stored at 21-25° C., 420 days", "value": 22.8, "unit": "µg/mL"}, {"measurement": "Stability of Vitamin Es in AB White", "setting": "stored at 21-25° C., 450 days", "value": 23.4, "unit": "µg/mL"}, {"measurement": "Stability of Vitamin Es in AB White", "setting": "stored at 21-25° C., 480 days", "value": 21.6, "unit": "µg/mL"}, {"measurement": "Stability of Vitamin Es in AB White", "setting": "stored at 21-25° C., 510 days", "value": 21.9, "unit": "µg/mL"}, {"measurement": "Stability of Vitamin Es in AB White", "setting": "stored at 21-25° C., 540 days", "value": 22.0, "unit": "µg/mL"}, {"measurement": "Stability of Vitamin Es in AB White", "setting": "stored at 21-25° C., 570 days", "value": 22.2, "unit": "µg/mL"}]}]}
